# Experimental data from patent US20010012832A1, “Method of hormone treatment for patients with symptoms consistent with multiple sclerosis” (priority 1999, published 2001).
# How the values were obtained:
# [1] = test system: Somatomedin C Blood Levels; assay: Somatomedin C blood levels before and after low dose-high frequency human growth hormone administration; assay type: in vivo; settings: 47 patients; after vs before hGH
# Description: IGF-I is directly dependent upon the secretion of HGH by the pituitary gland, so therefore there is a direct linkage between increased secretion of HGH and increased production of IGF-I. Table II presents the effects of the low dose at high frequency human growth hormone administration (low dose-high frequency) contemplated by the invention on IGF-I (somatomedin C) blood levels. FIGS. 8 and 9 present the peak IGF-I levels in males and females, respectively, before and after administration of […]. FIGS. 8 and 9 show mean, minimum and maximum, and 25, 50, and 75 percentile for 204 males and 91 females, respectively. The method of the invention also contemplates that the HGH is administered in keeping with the way the pituitary secretes HGH naturally. The low dose-high frequency method mimics the pituitary gland. The pituitary secretes HGH 24 hours a day, with the peaks during the first two hours of sleep. The method contemplates that the patients take lower doses more frequently to try to mimic the natural rhythm of the body as much as possible. The invention contemplates that the patients take HGH injections at least twice daily. A preferred regimen calls for subcutaneous injections of doses less than 0.5 mg per day (approximately 1-3 I.U.), administered twice daily. Typical doses for this regimen range from 4 units per week to 8 units per week.
# [2] = test system: IGF-I levels; assay: Peak IGF-I levels in males and females before and after administration; assay type: in vivo, human
# Description: IGF-I is directly dependent upon the secretion of HGH by the pituitary gland, so therefore there is a direct linkage between increased secretion of HGH and increased production of IGF-I. Table II presents the effects of the low dose at high frequency human growth hormone administration (low dose-high frequency) contemplated by the invention on IGF-I (somatomedin C) blood levels. FIGS. 8 and 9 present the peak IGF-I levels in males and females, respectively, before and after administration of […]. FIGS. 8 and 9 show mean, minimum and maximum, and 25, 50, and 75 percentile for 204 males and 91 females, respectively.
# The method of determining the level of the select group of hormones may be accomplished by a simple blood test. A patients' blood is evaluated for the hormone levels of the select group of hormones and those levels are compared to the optimal or predetermined physiological levels set forth in Table I. Based on the comparison of a patient's hormone levels with the optimal or predetermined physiological levels, a regimen is established for the patient for the replenishment of the level of deficient hormones to optimal physiological levels. It is further contemplated, that after the initial evaluation and the establishment of the regimen, a patient is monitored every 30 days, by a similar blood test, until the patient attains the optimal or predetermined physiological level, and the dosages of hormone supplementation are adjusted accordingly. Once the target levels are established, the regimen directs that the patient continue to follow the established dosage of supplemental hormones indefinitely to maintain the optimal or predetermined physiological levels. Periodic blood tests are subsequently administered to assure that the optimal or predetermined physiological levels are maintained.
# [3] = test system: adult female mice having induced EAE; settings: 0.6 mg subcutaneously over a ten day period; vs placebo; cited from earlier work
substance,measurement,setting,value
human growth hormone [hGH],"Somatomedin C Blood Levels Increase, Mean",[1],61.0%
Insulin-like Growth Factor-I [IGF-I],"Peak IFG levels FEMALES CHANGE, 25%ile",[2]; 91 females,26
same,"Peak IFG levels FEMALES CHANGE, 50%ile",[2]; 91 females,72
same,"Peak IFG levels FEMALES CHANGE, 75%ile",[2]; 91 females,128
same,"Peak IFG levels FEMALES CHANGE, MAX",[2]; 91 females,231
same,"Peak IFG levels FEMALES CHANGE, MEAN",[2]; 91 females,74.0
same,"Peak IFG levels FEMALES CHANGE, MEDIAN",[2]; 91 females,72
same,"Peak IFG levels FEMALES CHANGE, MIN",[2]; 91 females,−93
same,"Peak IFG levels FEMALES AFTER, 25%ile","[2]; 91 females, before 111",177
same,"Peak IFG levels FEMALES AFTER, 50%ile","[2]; 91 females, before 164",240
same,"Peak IFG levels FEMALES AFTER, 75%ile","[2]; 91 females, before 205",294
same,"Peak IFG levels FEMALES AFTER, MAX","[2]; 91 females, before max 311",378
same,"Peak IFG levels FEMALES AFTER, MEAN","[2]; 91 females, before mean 162.2, mean 133.4 days",236.3
same,"Peak IFG levels FEMALES AFTER, MEDIAN","[2]; 91 females, before median 154",240
same,"Peak IFG levels FEMALES AFTER, MIN","[2]; 91 females, before min 41",52
same,"Peak IFG levels MALES CHANGE, 25%ile",[2]; 204 males,24
same,"Peak IFG levels MALES CHANGE, 50%ile",[2]; 204 males,76
same,"Peak IFG levels MALES CHANGE, 75%ile",[2]; 204 males,125
same,"Peak IFG levels MALES CHANGE, MAX",[2]; 204 males,258
same,"Peak IFG levels MALES CHANGE, MEAN",[2]; 204 males,74.4
same,"Peak IFG levels MALES CHANGE, MEDIAN",[2]; 204 males,75.5
same,"Peak IFG levels MALES AFTER, 25%ile","[2]; 204 males, before 147",217
same,"Peak IFG levels MALES AFTER, 50%ile","[2]; 204 males, before 183",273
same,"Peak IFG levels MALES AFTER, 75%ile","[2]; 204 males, before 231",325
same,"Peak IFG levels MALES AFTER, MAX","[2]; 204 males, before max 361",396
same,"Peak IFG levels MALES AFTER, MEAN","[2]; 204 males, before mean 192.3, mean 118.5 days",266.7
same,"Peak IFG levels MALES AFTER, MEDIAN","[2]; 204 males, before median 183",272.5
same,"Peak IFG levels MALES AFTER, MIN","[2]; 204 males, before min 21",63
same,Clinical deficits in EAE mice,[3],reduced deficits
same,Lesions in EAE mice,[3],"reduced numbers and sizes of inflammatory, demyelinating and demyelinated lesions"
